Measurements published in ChEMBL document CHEMBL5696441 (Nat Chem Biol, 2011).

Assays:
[1] = target: Activin receptor type-2B (Homo sapiens) (UniProt Q13705); assay: Inhibition of ACVR2B (unknown origin) assessed as remaining activity at 1 uM by Kinome scan method relative to control
[2] = target: Tyrosine-protein kinase BTK (Homo sapiens) (UniProt Q06187); assay: Inhibition of BTK (unknown origin) assessed as remaining activity at 1 uM by Kinome scan method relative to control
[3] = tested on: Epidermal growth factor receptor (Homo sapiens), P00533 [UNDEFINED MUTATION]; assay: Inhibition of EGFR S752-I759del mutant (unknown origin) assessed as remaining activity at 1 uM by Kinome scan method relative to control
[4] = target: Tyrosine-protein kinase Fyn (Homo sapiens) (UniProt P06241); assay: Inhibition of FYN (unknown origin) assessed as remaining activity at 1 uM by Kinome scan method relative to control
[5] = target: Serine/threonine-protein kinase MAK (Homo sapiens) (UniProt P20794); assay: Inhibition of MAK (unknown origin) assessed as remaining activity at 1 uM by Kinome scan method relative to control
[6] = target: Platelet-derived growth factor receptor beta (Homo sapiens) (UniProt P09619); assay: Inhibition of PDGFRbeta (unknown origin) assessed as remaining activity at 1 uM by Kinome scan method relative to control
Chain of Platelet-derived growth factor receptor beta (Homo sapiens) (P09619 whole entry, canonical isoform): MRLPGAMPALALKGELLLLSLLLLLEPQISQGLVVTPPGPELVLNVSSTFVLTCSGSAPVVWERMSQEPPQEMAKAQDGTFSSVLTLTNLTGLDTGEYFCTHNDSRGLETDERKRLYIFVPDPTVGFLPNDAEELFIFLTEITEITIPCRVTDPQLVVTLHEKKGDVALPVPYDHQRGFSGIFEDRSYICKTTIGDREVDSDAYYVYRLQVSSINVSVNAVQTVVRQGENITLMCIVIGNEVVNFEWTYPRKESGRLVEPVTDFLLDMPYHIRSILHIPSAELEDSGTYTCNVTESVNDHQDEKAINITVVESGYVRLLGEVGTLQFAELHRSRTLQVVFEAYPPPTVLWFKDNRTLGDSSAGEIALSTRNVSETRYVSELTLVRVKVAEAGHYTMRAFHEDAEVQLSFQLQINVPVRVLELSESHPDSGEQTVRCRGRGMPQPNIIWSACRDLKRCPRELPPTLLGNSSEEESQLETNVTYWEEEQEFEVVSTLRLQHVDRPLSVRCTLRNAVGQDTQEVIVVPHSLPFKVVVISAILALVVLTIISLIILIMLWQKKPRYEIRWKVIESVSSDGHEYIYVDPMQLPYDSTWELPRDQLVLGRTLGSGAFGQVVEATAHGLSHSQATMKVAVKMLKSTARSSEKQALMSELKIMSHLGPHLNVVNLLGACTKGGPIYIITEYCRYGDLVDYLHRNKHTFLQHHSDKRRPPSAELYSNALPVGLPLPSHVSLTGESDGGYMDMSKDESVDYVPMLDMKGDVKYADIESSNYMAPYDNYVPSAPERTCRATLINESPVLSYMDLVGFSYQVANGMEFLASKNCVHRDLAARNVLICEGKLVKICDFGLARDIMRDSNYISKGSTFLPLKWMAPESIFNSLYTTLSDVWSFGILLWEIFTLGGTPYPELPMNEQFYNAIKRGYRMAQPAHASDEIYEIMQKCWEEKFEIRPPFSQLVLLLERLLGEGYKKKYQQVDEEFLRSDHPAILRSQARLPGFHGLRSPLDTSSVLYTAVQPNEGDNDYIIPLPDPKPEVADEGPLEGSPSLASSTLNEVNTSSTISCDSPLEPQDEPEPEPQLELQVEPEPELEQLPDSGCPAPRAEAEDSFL

[7] = tested on: Phosphatidylinositol 4,5-bisphosphate 3-kinase catalytic subunit alpha isoform (Homo sapiens), P42336 [E545K]; assay: Inhibition of PIK3CA E545K mutant (unknown origin) assessed as remaining activity at 1 uM by Kinome scan method relative to control
Chain of Phosphatidylinositol 4,5-bisphosphate 3-kinase catalytic subunit alpha isoform (Homo sapiens), P42336 [E545K] (P42336 whole entry E545K, canonical isoform): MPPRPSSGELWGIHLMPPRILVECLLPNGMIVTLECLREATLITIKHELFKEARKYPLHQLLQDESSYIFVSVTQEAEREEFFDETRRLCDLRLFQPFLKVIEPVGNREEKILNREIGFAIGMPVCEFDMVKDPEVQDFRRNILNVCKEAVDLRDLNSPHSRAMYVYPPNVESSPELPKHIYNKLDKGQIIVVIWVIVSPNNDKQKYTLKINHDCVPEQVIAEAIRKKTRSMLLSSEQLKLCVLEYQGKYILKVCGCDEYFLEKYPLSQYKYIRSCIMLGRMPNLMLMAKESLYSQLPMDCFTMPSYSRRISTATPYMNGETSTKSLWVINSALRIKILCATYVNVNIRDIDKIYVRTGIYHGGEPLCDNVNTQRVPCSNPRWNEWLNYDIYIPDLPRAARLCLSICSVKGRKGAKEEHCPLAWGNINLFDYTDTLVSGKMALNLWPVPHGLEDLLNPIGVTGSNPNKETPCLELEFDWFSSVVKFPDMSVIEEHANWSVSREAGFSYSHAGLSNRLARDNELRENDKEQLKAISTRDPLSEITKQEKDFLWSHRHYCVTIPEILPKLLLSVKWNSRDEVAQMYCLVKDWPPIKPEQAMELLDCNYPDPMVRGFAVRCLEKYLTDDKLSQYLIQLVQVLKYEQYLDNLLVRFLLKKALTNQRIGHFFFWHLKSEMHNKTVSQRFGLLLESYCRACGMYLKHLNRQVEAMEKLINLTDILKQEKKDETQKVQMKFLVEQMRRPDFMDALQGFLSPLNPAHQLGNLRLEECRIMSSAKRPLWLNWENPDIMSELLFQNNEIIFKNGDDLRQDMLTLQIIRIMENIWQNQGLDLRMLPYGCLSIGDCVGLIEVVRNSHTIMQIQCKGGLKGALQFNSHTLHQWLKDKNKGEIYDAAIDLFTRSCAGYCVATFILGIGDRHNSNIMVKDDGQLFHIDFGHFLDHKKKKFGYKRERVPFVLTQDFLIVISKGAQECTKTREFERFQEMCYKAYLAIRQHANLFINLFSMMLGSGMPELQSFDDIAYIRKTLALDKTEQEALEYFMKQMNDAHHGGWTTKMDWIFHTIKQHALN

[8] = target: Mitogen-activated protein kinase kinase kinase 5 (Homo sapiens) (UniProt Q99683); assay: Inhibition of human ASK1 assessed as residual activity at 1 uM using RBER-GSK3(14-27) as substrate in presence of 33P-ATP by ProQinase assay relative to control
[9] = target: Calcium/calmodulin-dependent protein kinase type II subunit delta (Homo sapiens) (UniProt Q13557); assay: Inhibition of human CAMK2D assessed as residual activity at 1 uM using RBER-CHKtide as substrate in presence of 33P-ATP by ProQinase assay relative to control
[10] = target: CDK9/cyclin T1 (Homo sapiens) (UniProt O60563+P50750); assay: Inhibition of human CDK9/CyclinT1 assessed as residual activity at 1 uM using RBER-CHKtide as substrate in presence of 33P-ATP by ProQinase assay relative to control; type: protein-complex assay
[11] = tested on: Epidermal growth factor receptor (Homo sapiens), P00533 [L858R]; assay: Inhibition of human EGFR L858R mutant assessed as residual activity at 1 uM using PolyEY as substrate in presence of 33P-ATP by ProQinase assay relative to control
[12] = target: Tyrosine-protein kinase Fer (Homo sapiens) (UniProt P16591); assay: Inhibition of human FER assessed as residual activity at 1 uM using polyEY as substrate in presence of 33P-ATP by ProQinase assay relative to control
Chain of Tyrosine-protein kinase Fer (Homo sapiens) (P16591 whole entry, looked up): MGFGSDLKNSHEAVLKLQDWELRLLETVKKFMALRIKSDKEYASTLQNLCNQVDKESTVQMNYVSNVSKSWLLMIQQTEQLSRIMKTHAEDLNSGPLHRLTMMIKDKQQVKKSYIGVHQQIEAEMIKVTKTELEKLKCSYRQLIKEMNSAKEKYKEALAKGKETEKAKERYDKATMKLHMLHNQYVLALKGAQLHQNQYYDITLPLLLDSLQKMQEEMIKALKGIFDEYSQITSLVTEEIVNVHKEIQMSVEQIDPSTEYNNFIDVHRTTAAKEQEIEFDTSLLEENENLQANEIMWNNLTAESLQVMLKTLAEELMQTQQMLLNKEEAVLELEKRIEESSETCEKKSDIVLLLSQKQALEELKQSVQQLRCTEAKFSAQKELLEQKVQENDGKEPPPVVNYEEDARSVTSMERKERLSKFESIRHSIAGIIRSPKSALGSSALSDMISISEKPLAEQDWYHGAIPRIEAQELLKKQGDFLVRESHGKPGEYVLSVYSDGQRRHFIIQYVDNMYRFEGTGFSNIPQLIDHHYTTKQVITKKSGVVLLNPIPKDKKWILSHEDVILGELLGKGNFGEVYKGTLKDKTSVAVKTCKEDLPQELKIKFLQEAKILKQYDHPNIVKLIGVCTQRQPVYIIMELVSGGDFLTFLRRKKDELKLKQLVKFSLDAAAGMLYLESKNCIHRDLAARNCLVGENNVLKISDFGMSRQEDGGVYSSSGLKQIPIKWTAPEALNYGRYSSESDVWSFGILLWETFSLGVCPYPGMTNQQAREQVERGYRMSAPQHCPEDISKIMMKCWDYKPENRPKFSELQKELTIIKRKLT

[13] = tested on: Fibroblast growth factor receptor 3 (Homo sapiens), P22607 [K650E]; assay: Inhibition of human FGFR3 K650E mutant assessed as residual activity at 1 uM using PolyEY as substrate in presence of 33P-ATP by ProQinase assay relative to control
[14] = target: Tyrosine-protein kinase FRK (Homo sapiens) (UniProt P42685); assay: Inhibition of human FRK assessed as residual activity at 1 uM using PolyEY as substrate in presence of 33P-ATP by ProQinase assay relative to control
[15] = target: Tyrosine-protein kinase JAK1 (Homo sapiens) (UniProt P23458); assay: Inhibition of human JAK1 assessed as residual activity at 1 uM using RBER-IRStide as substrate in presence of 33P-ATP by ProQinase assay relative to control
[16] = target: Mitogen-activated protein kinase 9 (Homo sapiens) (UniProt P45984); assay: Inhibition of human JNK2 assessed as residual activity at 1 uM using ATF2 as substrate in presence of 33P-ATP by ProQinase assay relative to control
Chain of Mitogen-activated protein kinase 9 (Homo sapiens) (P45984 whole entry, looked up): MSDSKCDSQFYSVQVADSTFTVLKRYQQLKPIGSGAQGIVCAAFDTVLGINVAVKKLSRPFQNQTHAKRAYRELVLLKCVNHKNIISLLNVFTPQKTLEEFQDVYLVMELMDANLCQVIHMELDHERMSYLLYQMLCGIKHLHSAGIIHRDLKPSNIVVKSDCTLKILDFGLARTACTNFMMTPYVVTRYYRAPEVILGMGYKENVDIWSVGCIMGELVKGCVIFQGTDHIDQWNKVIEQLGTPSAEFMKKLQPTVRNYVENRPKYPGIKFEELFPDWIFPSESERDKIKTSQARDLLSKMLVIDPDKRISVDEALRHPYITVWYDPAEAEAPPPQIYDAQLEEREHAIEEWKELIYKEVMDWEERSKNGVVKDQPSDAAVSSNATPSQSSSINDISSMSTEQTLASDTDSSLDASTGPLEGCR

[17] = target: Mitogen-activated protein kinase kinase kinase 14 (Homo sapiens) (UniProt Q99558); assay: Inhibition of human NIK assessed as residual activity at 1 uM using RBER-CHKtide as substrate in presence of 33P-ATP by ProQinase assay relative to control
[18] = target: Protein kinase C epsilon type (Homo sapiens) (UniProt Q02156); assay: Inhibition of human PKCepsilon assessed as residual activity at 1 uM using 3xChocktide-PKC(19-31) as substrate in presence of 33P-ATP by ProQinase assay relative to control
Chain of Protein kinase C epsilon type (Homo sapiens) (Q02156 whole entry): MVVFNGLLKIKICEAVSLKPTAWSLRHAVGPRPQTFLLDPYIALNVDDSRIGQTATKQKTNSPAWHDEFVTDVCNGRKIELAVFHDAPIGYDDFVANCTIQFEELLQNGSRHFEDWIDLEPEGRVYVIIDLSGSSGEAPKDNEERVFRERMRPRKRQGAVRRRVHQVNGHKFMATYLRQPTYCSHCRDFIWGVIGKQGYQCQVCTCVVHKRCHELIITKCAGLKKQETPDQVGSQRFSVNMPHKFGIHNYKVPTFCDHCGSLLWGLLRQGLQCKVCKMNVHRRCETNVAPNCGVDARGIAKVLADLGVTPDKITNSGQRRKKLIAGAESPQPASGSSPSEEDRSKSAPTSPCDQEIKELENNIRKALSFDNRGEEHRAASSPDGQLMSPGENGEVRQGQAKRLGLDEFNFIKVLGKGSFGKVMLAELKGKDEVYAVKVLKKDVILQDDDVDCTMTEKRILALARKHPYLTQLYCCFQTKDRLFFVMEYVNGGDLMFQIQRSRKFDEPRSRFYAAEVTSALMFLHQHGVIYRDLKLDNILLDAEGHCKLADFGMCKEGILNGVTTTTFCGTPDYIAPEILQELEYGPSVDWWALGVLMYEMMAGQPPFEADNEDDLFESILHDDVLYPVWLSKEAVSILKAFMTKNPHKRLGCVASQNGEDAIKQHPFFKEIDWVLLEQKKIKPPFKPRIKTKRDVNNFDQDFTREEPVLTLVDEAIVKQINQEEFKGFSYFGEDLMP

[19] = target: Serine/threonine-protein kinase Sgk2 (Homo sapiens) (UniProt Q9HBY8); assay: Inhibition of human SGK2 assessed as residual activity at 1 uM using RBER-GSK3(14-27) as substrate in presence of 33P-ATP by ProQinase assay relative to control
Chain of Serine/threonine-protein kinase Sgk2 (Homo sapiens) (Q9HBY8 whole entry): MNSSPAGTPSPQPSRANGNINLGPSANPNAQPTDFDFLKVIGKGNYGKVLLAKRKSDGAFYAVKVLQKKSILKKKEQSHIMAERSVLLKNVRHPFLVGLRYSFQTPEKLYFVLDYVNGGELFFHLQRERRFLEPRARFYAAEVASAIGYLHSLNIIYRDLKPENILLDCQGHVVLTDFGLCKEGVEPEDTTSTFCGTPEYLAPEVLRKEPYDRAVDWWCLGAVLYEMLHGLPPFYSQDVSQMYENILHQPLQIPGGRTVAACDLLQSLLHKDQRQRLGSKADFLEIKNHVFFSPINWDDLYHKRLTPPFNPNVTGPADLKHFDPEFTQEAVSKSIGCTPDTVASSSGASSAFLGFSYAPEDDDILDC

[20] = target: Tyrosine-protein kinase Srms (Homo sapiens) (UniProt Q9H3Y6); assay: Inhibition of human SRMS assessed as residual activity at 1 uM using PolyEY as substrate in presence of 33P-ATP by ProQinase assay relative to control
[21] = target: T1, Testis-specific serine/threonine-protein kinase 1 (Homo sapiens) (UniProt Q9BXA7); assay: Inhibition of human TSSK1 assessed as residual activity at 1 uM using RBER-CHKtide as substrate in presence of 33P-ATP by ProQinase assay relative to control
T1 sequence (whole entry): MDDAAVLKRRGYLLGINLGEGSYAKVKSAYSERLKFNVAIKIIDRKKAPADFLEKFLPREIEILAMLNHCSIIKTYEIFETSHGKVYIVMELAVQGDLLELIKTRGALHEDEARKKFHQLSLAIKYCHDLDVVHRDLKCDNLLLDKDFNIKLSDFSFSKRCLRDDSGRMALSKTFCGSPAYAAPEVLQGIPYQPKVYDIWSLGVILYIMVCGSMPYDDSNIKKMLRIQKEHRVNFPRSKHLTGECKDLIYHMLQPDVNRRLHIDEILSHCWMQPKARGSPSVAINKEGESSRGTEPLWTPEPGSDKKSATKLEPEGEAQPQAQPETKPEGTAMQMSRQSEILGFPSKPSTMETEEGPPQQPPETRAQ

[22] = Anti-inflammatory activity against human derived high respond PBMC cells assessed as inhibition in stimulated IL-1ra cytokine release incubated for 2 hrs in the presence of LPS/SEB/aCD28 by Luminex based sandwich immunoassay; type: functional, cell-based
[23] = Anti-inflammatory activity against human derived high respond PBMC cells assessed as inhibition in stimulated IL-5 cytokine release at 10 uM incubated for 2 hrs in the presence of LPS/SEB/aCD28 by Luminex based sandwich immunoassay relative to control; type: functional
[24] = Anti-inflammatory activity against human derived medium respond PBMC cells assessed as inhibition in stimulated TARC chemokine release incubated for 2 hrs in the presence of LPS/SEB/aCD28 by Luminex based sandwich immunoassay; type: functional, cell-based
[25] = Anti-inflammatory activity against human derived medium respond PBMC cells assessed as inhibition in stimulated IL-13 cytokine release incubated for 2 hrs in the presence of LPS/SEB/aCD28 by Luminex based sandwich immunoassay; type: functional, cell-based

Chain of Activin receptor type-2B (Homo sapiens) (Q13705 whole entry): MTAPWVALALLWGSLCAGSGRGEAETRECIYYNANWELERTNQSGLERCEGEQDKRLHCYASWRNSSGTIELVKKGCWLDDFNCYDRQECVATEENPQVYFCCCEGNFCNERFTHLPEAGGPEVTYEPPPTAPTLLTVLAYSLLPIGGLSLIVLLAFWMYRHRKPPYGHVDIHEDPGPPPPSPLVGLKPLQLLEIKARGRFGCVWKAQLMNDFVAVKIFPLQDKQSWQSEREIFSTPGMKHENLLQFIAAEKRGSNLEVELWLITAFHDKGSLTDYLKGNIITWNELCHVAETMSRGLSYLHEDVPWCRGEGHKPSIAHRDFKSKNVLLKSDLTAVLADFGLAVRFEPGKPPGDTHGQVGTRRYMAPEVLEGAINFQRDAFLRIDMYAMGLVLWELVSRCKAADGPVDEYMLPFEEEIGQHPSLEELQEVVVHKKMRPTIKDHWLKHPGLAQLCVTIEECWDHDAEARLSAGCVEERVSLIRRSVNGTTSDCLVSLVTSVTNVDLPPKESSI

O=C1c2ccc(Nc3ccc(F)cc3F)cc2CCc2ccc(OC[C@H](O)CO)cc21 [Skepinone-L]
Activity [1]: 83%
Activity [2]: 100%
Activity [3]: 100%
Activity [4]: 98%
Activity [5]: 84%
Activity [6]: 87%
Activity [7]: 100%
Activity [8]: 103%
Activity [9]: 43%
Activity [10]: 103%
Activity [11]: 89%
Activity [12]: 101%
Activity [13]: 99%
Activity [14]: 111%
Activity [15]: 93%
Activity [16]: 58%
Activity [17]: 96%
Activity [18]: 99%
Activity [19]: 89%
Activity [20]: 95%
Activity [21]: 90%
IC50 [22]: 200 nM
inhibition at 10 µM [23]: 50%
IC50 [24]: Not Active
IC50 [25]: 4380 nM
